Tested on: histone H3.1 modifications in HEK-293 cells
Test: Middle-down mass spectrometry of histone H3.1 from HEK-293 cells ± KDAC inhibition (H3K9 methylation, {K9ac, K14ac, K18ac} proteoforms, H3K4 methylation)
Format: cell-based
Settings: for 3ac including {K9ac, K14ac, K18ac} / 4ac including {K9ac, K14ac, K18ac} / 5ac including {K9ac, K14ac, K18ac}: HEK-293, H3.1 butyrate treated; for H3K9me0 / H3K9me1 / H3K9me2 / H3K9me3: HEK-293, butyrate treated
Description: Figure 3. […] (A) Occupancy of H3K4 methyl states (me0-1-2-3) within each H3 acetyl state (0ac to 5ac) in asynchronous MCF-7 cells. (B) Occupancy of H3K4 methyl states within each H3 acetyl state after butyrate treatment (60 min). Asterisks represent p-values <0.05. […] Each spectrum is an average of MS2 spectra of the indicated H3 acetyl states after 60 min of butyrate treatment. K4 occupancy stoichiometry is directly correlated with H3 acetylation state and the targeted MS approach provides excellent signal-to-noise for confident quantitation. […] See Methods for further information on data acquisition and analysis. All data were collected in biological triplicate with error bars representing SEM. Figure 3—figure supplement 1. H3 acetylation states with sodium butyrate treatment. (A - B) Each acetyl state of acid-extracted H3 from 0ac to 5ac is represented as a percent of total H3 before/after 60 min treatment of asynchronous MCF-7 cells with 5 mM sodium butyrate. (C) Occupancy of H3K4 methyl states (me0-1-2-3) within each H3 acetyl state (0ac to 5ac) in asynchronous HEK-293 cells. (D) Occupancy of H3K4 methyl states within each H3 acetyl state after butyrate treatment (120 min) in asynchronous HEK-293 cells. (E) Percentage of (K9ac, K14ac, K18ac) proteoforms within 3ac to 5ac acetyl states of H3.1 ± butyrate treatment in HEK-293 cells. N=3 and error bars are SEM for all data. [drawing 3]
MCF-7 breast cancer cells (ATCC HTB-22) were grown in MEM (Gibco) supplemented with 10% fetal bovine serum (VWR), 100 I.U. penicillin, 100 µg/mL streptomycin (Corning), 0.01 mg/mL human recombinant insulin (Gibco), and 5 µg/mL plasmocin (Invivogen) at 37 °C and 5% CO2. HEK-293 (ATCC CRL-1573) was grown in DMEM (Gibco) supplemented with 10% fetal bovine serum (Corning), 100 I.U. penicillin, and 100 µg/mL streptomycin (Gibco) at 37 °C and 5% CO2. Both cell lines were authenticated via STR profiling and confirmed to be Mycoplasma negative.
For mass spectrometric (MS) analysis ± KDAC inhibition, cells were cultured in 150 mm dishes to ~80% confluence and treated with 5 mM sodium butyrate (or equivalent volume of water) in triplicate for 0, 10, 20, 30, 60, 120 min. […] Histones were acid extracted after nuclei isolation as described ([Holt et al., 2021]). Isolated histones were resuspended in 85 µL 5% acetonitrile, 0.2% trifluoroacetic acid (TFA), and resolved by offline high-performance liquid chromatography (HPLC) as described ([Holt et al., 2021]). […] After chromatographic separation and fraction collection, histone H3.1 was selected, diluted in 100 mM ammonium acetate (pH = 4), and digested with Glu-C protease (Roche) at 10:1 protein:enzyme for 1 hr at room temperature prior to mass spectrometric analysis.
The digested samples were diluted to 2 µg/µL. Online HPLC was performed on a U3000 RSLC nano Pro-flow system using a C3 column (Zorbax 300 SB-C3, 5 µm; Agilent). Samples were maintained at 4 °C and 1 µL injected for each analysis using a microliter pickup. […] The column eluant was introduced into an Orbitrap Fusion Lumos mass spectrometer (Thermo Fisher) by nano-electrospray ionization. A static spray voltage of 1900 V and an ion transfer tube temperature of 320 °C were set for the source.
A Fusion Lumos mass spectrometer was used to generate MS data. The 9th charge state of histone H3 was targeted for analysis. MS1 analysis was acquired in the orbitrap with a normal mass range and a 60 k resolution setting in positive ion mode. An Automatic Gain Control (AGC) target of 5.0E5 with a 200 ms maximum injection time, three microscans, and a scan range of 585–640 m/z was used to identify desired ions for fragmentation. MS2 acquisition was performed in both orbitrap and ion trap modes. Both modes used electron transfer dissociation (ETD), a reaction time of 18ms, and an injection time of 200 ms. […]

## CCCC(=O)O [sodium butyrate]
  3ac including {K9ac, K14ac, K18ac}: 1.6743 Percentage
  4ac including {K9ac, K14ac, K18ac}: 16.6357 Percentage
  5ac including {K9ac, K14ac, K18ac}: 100 Percentage
Column 1 of 3
  3ac including {K9ac, K14ac, K18ac}: 1.334 Percentage
  4ac including {K9ac, K14ac, K18ac}: 17.3973 Percentage
  5ac including {K9ac, K14ac, K18ac}: 100 Percentage
Column 2 of 3
  3ac including {K9ac, K14ac, K18ac}: 1.24 Percentage
  4ac including {K9ac, K14ac, K18ac}: 17.858 Percentage
  5ac including {K9ac, K14ac, K18ac}: 100 Percentage
0ac
  H3K9me0: 48.8895 Percentage
  H3K9me1: 7.899 Percentage
  H3K9me2: 29.443 Percentage
  H3K9me3: 13.7682 Percentage
0ac, column 1 of 3
  H3K9me0: 54.4348 Percentage
  H3K9me1: 4.2113 Percentage
  H3K9me2: 27.4814 Percentage
  H3K9me3: 13.8725 Percentage
0ac, column 2 of 3
  H3K9me0: 51.9841 Percentage
  H3K9me1: 5.137 Percentage
  H3K9me2: 26.9782 Percentage
  H3K9me3: 15.9004 Percentage
1ac
  H3K9me0: 27.5434 Percentage
  H3K9me1: 15.9623 Percentage
  H3K9me2: 38.0917 Percentage
  H3K9me3: 17.0037 Percentage
1ac, column 1 of 3
  H3K9me0: 28.711 Percentage
  H3K9me1: 14.4169 Percentage
  H3K9me2: 39.3301 Percentage
  H3K9me3: 15.8799 Percentage
1ac, column 2 of 3
  H3K9me0: 28.8744 Percentage
  H3K9me1: 14.4284 Percentage
  H3K9me2: 38.0038 Percentage
  H3K9me3: 16.6818 Percentage
2ac
  H3K9me0: 27.9258 Percentage
  H3K9me1: 21.3235 Percentage
  H3K9me2: 37.139 Percentage
  H3K9me3: 9.818 Percentage
2ac, column 1 of 3
  H3K9me0: 28.9582 Percentage
  H3K9me1: 21.0866 Percentage
  H3K9me2: 35.8684 Percentage
  H3K9me3: 10.0575 Percentage
2ac, column 2 of 3
  H3K9me0: 26.6449 Percentage
  H3K9me1: 22.0491 Percentage
  H3K9me2: 35.8906 Percentage
  H3K9me3: 10.993 Percentage
3ac
  H3K9me0: 21.6496 Percentage
  H3K9me1: 12.8486 Percentage
  H3K9me2: 25.9132 Percentage
  H3K9me3: 9.297 Percentage
3ac, column 1 of 3
  H3K9me0: 21.2886 Percentage
  H3K9me1: 12.9304 Percentage
  H3K9me2: 26.508 Percentage
  H3K9me3: 10.2618 Percentage
3ac, column 2 of 3
  H3K9me0: 21.713 Percentage
  H3K9me1: 11.1466 Percentage
  H3K9me2: 27.8034 Percentage
  H3K9me3: 10.4504 Percentage
4ac
  H3K9me0: 4.833 Percentage
  H3K9me1: 7.36 Percentage
  H3K9me2: 8.881 Percentage
  H3K9me3: 1.604 Percentage
4ac, column 1 of 3
  H3K9me0: 5.043 Percentage
  H3K9me1: 6.813 Percentage
  H3K9me2: 10.053 Percentage
  H3K9me3: 3.009 Percentage
4ac, column 2 of 3
  H3K9me0: 4.13 Percentage
  H3K9me1: 7.856 Percentage
  H3K9me2: 9.753 Percentage
  H3K9me3: 2.246 Percentage
5ac
  H3K9me0: 0 Percentage
  H3K9me1: 0 Percentage
  H3K9me2: 0 Percentage
  H3K9me3: 0 Percentage
5ac, column 1 of 3
  H3K9me0: 0 Percentage
  H3K9me1: 0 Percentage
  H3K9me2: 0 Percentage
  H3K9me3: 0 Percentage
5ac, column 2 of 3
  H3K9me0: 0 Percentage
  H3K9me1: 0 Percentage
  H3K9me2: 0 Percentage
  H3K9me3: 0 Percentage
HEK-293, ± butyrate
  H3K9me3 on hyperacetylated H3 proteoforms, in words: H3K9me3 did not accumulate with hyperacetylated H3 proteoforms
  {K9ac, K14ac, K18ac} in 5ac proteoforms, in words: all penta-acetylated (5ac) H3 proteoforms consisted of acetylation at H3K9, K14, and K18 at minimum
